Source: article PMC2980575 (Analytical biochemistry, 2010)

How the values were obtained:
HDAC8 [1] = molecular target: T1, HDAC8 (Homo sapiens, UniProt Q9BY41); assay: Stopped-flow transient kinetics, c-SAHA as competitive ligand; type: binding; details: pH 7.5, read-out: koff (dissociation off-rate)
T1 sequence (Q9BY41 1-377): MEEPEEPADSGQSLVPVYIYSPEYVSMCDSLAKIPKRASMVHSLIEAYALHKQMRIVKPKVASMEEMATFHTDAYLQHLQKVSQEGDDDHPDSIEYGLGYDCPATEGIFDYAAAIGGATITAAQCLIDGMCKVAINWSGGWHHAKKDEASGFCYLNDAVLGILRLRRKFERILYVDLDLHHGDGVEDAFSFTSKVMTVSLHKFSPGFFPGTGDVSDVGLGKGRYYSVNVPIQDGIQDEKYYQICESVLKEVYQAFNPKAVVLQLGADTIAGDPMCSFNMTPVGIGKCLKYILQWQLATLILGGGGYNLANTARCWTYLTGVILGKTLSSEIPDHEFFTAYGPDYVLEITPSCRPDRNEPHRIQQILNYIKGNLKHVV

HDAC8 [2] = molecular target: T1, HDAC8; assay: Fluorescence displacement method with c-SAHA as probe, Dynafit analysis
HDAC8 [3] = molecular target: T1, HDAC8; assay: Trypsin-coupled steady-state kinetic assay with Fluor de Lys substrate; type: biochemical
HDAC8 [4] = molecular target: T1, HDAC8; assay: Direct fluorescence titration of c-SAHA with HDAC8; type: binding

Ki of c-SAHA lower than that of parent compound SAHA (HDAC8 [3]; steady-state kinetic data, c-SAHA versus SAHA) | Kd (HDAC8 [4]) [nM] | Structure (SMILES) | koff (HDAC8 [1]) [s⁻¹] | Kd (HDAC8 [2]) [nM] | Ki (HDAC8 [3]) [nM]
– | – | CN(C)c1ccc(C(=O)NCCCCCCC(=O)NO)cc1 [M344, 4-Dimethylamino-N-(6-hydroxycarbamoylhexyl)-benzamide] | 1.05 ± 0.12 | 320 ± 90 | 180 ± 20
about 5 fold | 160 ± 20 | Cc1cc(=O)oc2cc(NC(=O)CCCCCCC(=O)NO)ccc12 [c-SAHA, N^1-hydroxy-N^8-(4-methyl-2-oxo-2H-chromen-7-yl)octanediamide] | – | – | 160
